# Source: patent publication US4544660A, “Pharmaceutically active tropanes” (Beecham Group p.l.c., priority 1978, dated 1985)
# Assays:
# Format in all cases: in vivo
# [1] = system: Dopamine Receptor; assay: Inhibition of apomorphine induced stereotype behaviour in the rat; settings: s.c., apomorphine induced, complete inhibition, IA(x) = inactive at dose in brackets
# Text: (§1) I. Dopamine Receptor Blocking Activity in the Central Nervous System
# (a) Inhibition of apomorphine induced stereotype behaviour in the rat
# (method of Ernst (1967), Psychopharmacologia (Berl.) 10 316-323).
# [2] = system: vomiting response; assay: Anti-emetic activity in the dog (apomorphine induced vomiting); settings: Canis lupus familiaris, 30 min before apomorphine HCl 0.1 mg/kg s.c.; for ED100: s.c., complete inhibition, read-out: II Anti-Emetic Activity Dose, Complete Inhibition
# Protocol: II. Anti-emetic activity in the dog
# Compounds were administered subcutaneously 30 minutes prior to administration of a standard dose of apomorphine HCl (0.1 mg/kg subcutaneously) and the vomiting response compared to that obtained when the same animals were dosed with apomorphine HCl and vehicle only.
# [3] = system: gastric emptying; assay: Increase in gastric emptying: reversal of apomorphine induced delay in gastric emptying in the rat; design: key to III(b) Increase in Gastric Emptying: IA: inactive at the dose in the brackets, mg/Kg s.c; settings: 10 mg/kg s.c.; for III(b) Increase in Gastric Emptying: apomorphine HCl 5 mg/kg s.c. induced delay
# Protocol: (b) Increase in gastric emptying: reversal of apomorphine induced delay in gastric emptying in the rat
# Rats equipped with chromic gastric fistulae were used and it was through this that 5 ml of a test meal (5 ml phosphate buffer at pH 9) was administered and recovered. The % recovery of the standard meal after remaining in the stomach for 10 minutes was taken as an index of gastric emptying. Delay in gastric emptying was induced by the administration of apomorphine HCl (5 mg/kg subcutaneously) which was given 15 minutes prior to the subcutaneous administration of the compound. The % recoveries of the test meal were determined at 15-25 and 45-55 minutes post-dosing with the compound and compared with vehicle only dosed animals set up simultaneously. Six animals were used for each group.
# [4] = system: Dopamine Receptor; assay: Inhibition of apomorphine induced climbing in the mouse; settings: p.o., apomorphine 1 mg/kg s.c., complete inhibition
# Protocol: as §1
# (b) Inhibition of apomorphine induced climbing in the mouse
# The test is based on that described by Protais, P., Constantin, J. and Schwartz J.C. (1976), Psychopharmacology, 50, 1-6.
# Apomorphine 1 mg/kg s.c. induces mice to climb the wall of a wire cage (inverted food hopper--11×7.5×18 cm high). Mice acclimatised in their home cages in groups of 5 are placed under the hoppers immediately after the injection of apomorphine 1 mg/kg s.c. At 10,20 and 30 minutes after injection climbing behaviour is scored. The mice are observed for 30 seconds and scored according to the position they spend the majority of time in, score 0--four paws on floor of cage; score 1--fore paws only on walls; score 2--all paws on wall of cage. The scores at all 3 times and for each mouse are summed and mice drug treated orally compared to mice receiving apomorphine only. A saline only treated group is also included and any score, generally <5% of maximum taken into account.
# [5] = system: intragastric pressure; assay: Increase in intragastric pressure in the rat; design: III(a) Increase in Intragastric Pressure Dose (minimum dose for activity): unit not given here; settings: s.c., 40 minute period after administration; for minimal effective dose: sc, 40 min, read-out: III(a) Increase in Intragastric Pressure Dose (minimum dose for activity)
# Protocol: (a) Increase in intragastric pressure in the rat
# Intragastric pressure changes were recorded from previously starved conscious but restrained rats using a saline filled catheter inserted into the lumen of the stomach via a permanent gastric fistula. The catheter was connected to a physiological pressure transducer and pressure changes recorded on a hot wire pen recorder. In each animal a pre-dose period of 40 minutes was allowed to obtain a measure of spontaneous activity. An index of activity was obtained by measuring the average height of pressure waves during 10 minute periods. Values for 4 such periods were obtained during assessment of spontaneous activity and for the 40 minute period after the subcutaneous administration of the compounds. Students `t` test was applied to the difference in average values obtained for spontaneous and post-compound activity.
SMILES,I(a) Dose Inhibiting Stereotype Behaviour (dose for complete inhibition) [1],ED100 [2] [mg/kg],"I(b) Anti-Climbing Activity Dose, Complete Inhibition [4]",minimal effective dose [5] [mg/kg],other results
"COc1cc(N)c(Cl)cc1C(=O)NC1CC2CCC(C1)N2Cc1ccccc1 (stereo not drawn) [Compound 2, 4-amino-5-chloro-2-methoxy-N-(3'α, 8-[8'-benzyl]8-azabicyclo[3,2,1]octyl)benzamide]",10 mg/kg,0.0025,,,"% Recovery of test meal, mean ± S.E. of mean, 15-25 mins. ([3]; 15-25 mins post dosing, apomorphine, printed with **, apomorphine + vehicle 72.4 ± 5.1): 37.4 ± 6.7%; % Recovery of test meal, mean ± S.E. of mean, 45-55 mins. ([3]; 45-55 mins post dosing, apomorphine, printed with ***, apomorphine + vehicle 60.7 ± 7.3): 18.3 ± 1.1%"
"CCCN1[C@@H]2CC[C@H]1C[C@H](NC(=O)c1cc(Cl)c(N)cc1OC)C2 [Compound 24, 4-amino-5-chloro-2-methoxy-N-(3'β-[8'-n-propyl-8'-azabicyclo[3.2.1]-octyl])benzamide]",IA(25),0.4,IA (inactive at 10 mg/Kg p.o.),5 to 10,III(b) Increase in Gastric Emptying [3]: IA(25)
"COc1ccccc1C(=O)N[C@@H]1C[C@H]2CC[C@@H](C1)N2Cc1ccccc1 [Compound 9, 2-Methoxy-N-(3'β-[8'-benzyl-8'-azabicyclo-[3.2.1]-octyl])-benzamide]",,0.1,10 mg/kg,,
"COc1cc(N)c(Cl)cc1C(=O)N[C@@H]1C[C@H]2CCC[C@@H](C1)N2C [Compound 22, 4-amino-5-chloro-2-methoxy-N-(3'β-[9'-methyl-9'-azabicyclo[3.3.1]-nonyl])-benzamide]",IA(25),,IA (inactive at 10 mg/Kg p.o.),1,III(b) Increase in Gastric Emptying [3]: IA(25)
"COc1cc(N)c(Cl)cc1C(=O)N[C@@H]1C[C@H]2CC[C@@H](C1)N2Cc1ccc(Cl)cc1 [Compound 16, 4amino-5-chloro-2-methoxy-N-(3β-[8'[4""chlorobenzyl]-8'-azabicyclo[3.2.1]octyl])-benzamide]",,,2 mg/kg,,
"COc1cc(N)c(Cl)cc1C(=O)N[C@@H]1C[C@H]2CC[C@@H](C1)N2CC(C)C [Compound 28, 4-amino-5-chloro-2-methoxy-N-(3'β-[8'-isobutyl-8'-azabicyclo-[3.2.1]-octyl])-benzamide]",,0.2,,5,
"COc1ccc(S(N)(=O)=O)cc1C(=O)N[C@@H]1C[C@H]2CC[C@@H](C1)N2Cc1ccccc1 [Compound 8, 5-Sulphamoyl-2-methoxy-N-(3'β-[8'-benzyl]-8'-azabicyclo-[3.2.1]-octyl)-benzamide]",,0.1,IA (inactive at 10 mg/Kg p.o.),,III(a) Increase in Intragastric Pressure Dose (minimum dose for activity) [5]: IA(5)
"CCOc1ccc(CN2[C@@H]3CC[C@H]2C[C@H](NC(=O)c2cc(Cl)c(N)cc2OC)C3)cc1 [Compound 15, 4amino-5-chloro-2-methoxy-N-(3β-[8'[4""ethoxybenzyl]-8'-azabicyclo[3.2.1]octyl])-benzamide]",,0.1,10 mg/kg,,
"CCN1[C@@H]2CC[C@H]1C[C@H](NC(=O)c1cc(Cl)c(N)cc1OC)C2 [Compound 23, 4-amino-5-chloro-2-methoxy-N-(3'β-[8'-ethyl-8'-azabicyclo[3.2.1]octyl])benzamide]",IA(25),1.6,IA (inactive at 10 mg/Kg p.o.),1 to 10,III(b) Increase in Gastric Emptying [3]: 25%
"COc1cc(N)c(Cl)cc1C(=O)N[C@@H]1C[C@H]2CC[C@@H](C1)N2C(C)C [Compound 25, 4-amino-5-chloro-2-methoxy-N-(3'β-[8'-iso-propyl-8'-azabicyclo[3.2.1]-octyl])benzamide]",IA(25),,IA (inactive at 10 mg/Kg p.o.),5,"ED50 ([2]; sc, ED50, read-out: II Anti-Emetic Activity Dose, ED50): 0.8 mg/kg; III(b) Increase in Gastric Emptying [3]: IA"
"C=CCN1[C@@H]2CC[C@H]1C[C@H](NC(=O)c1cc(Cl)c(N)cc1OC)C2 [Compound 32, 4-amino-5-chloro-2-methoxy-N-(3'β-[8'-ally-8-azabicyclo[3.2.1]octyl])benzamide]",,0.2,,,
"COc1cc(N)c(Cl)cc1C(=O)N[C@H]1C[C@H]2CCC[C@@H](C1)N2Cc1ccccc1 [Compound 11, 4-amino-5-chloro-2-methoxy-N-(3'α-[9'-benzyl-9'-azabicyclo-[3,3,1]-nonyl])-benzamide]",IA(50),,IA (inactive at 10 mg/Kg p.o.),1,
"COc1cc(N)c(Cl)cc1C(=O)N[C@@H]1C[C@H]2CC[C@@H](C1)[N+]2(C)Cc1ccccc1 (stereo partly drawn) [Compound 10, 4-Amino-5-chloro-2-methoxy-N-(3'β-[8'-benzyl]-8'-azabicyclo[3.2.1]octyl)-benzamide methobromide]",,,IA(2),0.25,
"COc1ccc(CN2[C@@H]3CC[C@H]2C[C@H](NC(=O)c2cc(Cl)c(N)cc2OC)C3)cc1 [Compound 14, 4amino-5-chloro-2-methoxy-N-(3β-[8'[4""methoxybenzyl]-8'-azabicyclo[3.2.1]octyl])-benzamide]",,0.1,10 mg/kg,,
"COc1cc(N)c(Cl)cc1C(=O)N[C@@H]1C[C@H]2CC[C@@H](C1)N2C1CCCCC1 [Compound 31, 4-amino-5-chloro-2-methoxy-N-(3'β-[8'-cyclohexyl-8-azabicyclo[3.2.1]octyl])benzamide]",,0.25,IA (inactive at 10 mg/Kg p.o.),,
"COc1cc(N)c(Cl)cc1C(=O)N[C@H]1C[C@H]2CC[C@@H](C1)N2Cc1ccccc1 [Compound 3, 4-amino-5-chloro-2-methoxy-N-(3',α-[8'-benzyl]nortropyl)benzamide]",50 mg/kg,0.05,,,
"COc1cc(N)c(Cl)cc1C(=O)N(C)[C@H]1C[C@H]2CC[C@@H](C1)N2Cc1ccccc1 [Compound 6, 4-Amino-5-chloro-2-methoxy-N-methyl-N-(3'α-[8'-benzyl-8'-azabicyclo[3.2.1]octyl])benzamide]",IA(50),,IA (inactive at 10 mg/Kg p.o.),10,III(b) Increase in Gastric Emptying [3]: IA(50)
"COc1cc(N)c(Cl)cc1C(=O)N[C@H]1C[C@H]2CCC[C@@H](C1)N2C [Compound 21, 4-amino-5-chloro-2-methoxy-N-(3'α-[9'-methyl-9'-azabicyclo[3.3.1]nonyl])benzamide]",IA(50),,10 mg/kg,5,
